The record followed here is patent US11208412B2 (DAEGU-GYEONGBUK MEDICAL INNOVATION FOUNDATION, priority 2017, dated 2021).

Experiment in all cases: Kinase selectivity, DiscoverX scanMAX Kinase assay panel (% control)
Common to all, as to type: binding

Assay [1] deals with T1, kinases of the scanMAX Kinase assay panel (Homo sapiens, UniProt P78356).
T1 construct: purchased DiscoverX Co. (contract measurement) scanMAX Kinase assay panel
T1 sequence (P78356 1-416): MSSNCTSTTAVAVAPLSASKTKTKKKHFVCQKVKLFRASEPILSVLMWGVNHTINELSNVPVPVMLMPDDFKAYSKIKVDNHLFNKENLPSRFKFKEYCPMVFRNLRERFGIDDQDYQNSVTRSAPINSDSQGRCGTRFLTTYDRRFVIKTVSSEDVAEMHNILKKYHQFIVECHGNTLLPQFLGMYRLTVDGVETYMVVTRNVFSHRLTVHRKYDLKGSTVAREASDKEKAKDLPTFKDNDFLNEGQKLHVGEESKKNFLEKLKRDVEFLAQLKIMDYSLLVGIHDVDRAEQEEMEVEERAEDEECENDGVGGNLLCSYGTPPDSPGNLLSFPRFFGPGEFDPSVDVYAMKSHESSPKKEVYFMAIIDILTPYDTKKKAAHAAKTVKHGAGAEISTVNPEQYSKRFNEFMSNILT
Particulars: PIP5K2B; 1 uM. In a few lines: (§1)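 Percent of control computed as (compound − positive control)/(negative control − positive control) × 100, DMSO defining 100% and positive control 0%. Each panel kinase exposed to 1 uM compound; values under 35% taken to mean the compound acts on that kinase.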

For assay [2], the target named is T2, kinases of the scanMAX Kinase assay panel (Homo sapiens, UniProt Q9H2K8).
T2 construct: purchased DiscoverX Co. (contract measurement) scanMAX Kinase assay panel
T2 sequence (Q9H2K8 1-898): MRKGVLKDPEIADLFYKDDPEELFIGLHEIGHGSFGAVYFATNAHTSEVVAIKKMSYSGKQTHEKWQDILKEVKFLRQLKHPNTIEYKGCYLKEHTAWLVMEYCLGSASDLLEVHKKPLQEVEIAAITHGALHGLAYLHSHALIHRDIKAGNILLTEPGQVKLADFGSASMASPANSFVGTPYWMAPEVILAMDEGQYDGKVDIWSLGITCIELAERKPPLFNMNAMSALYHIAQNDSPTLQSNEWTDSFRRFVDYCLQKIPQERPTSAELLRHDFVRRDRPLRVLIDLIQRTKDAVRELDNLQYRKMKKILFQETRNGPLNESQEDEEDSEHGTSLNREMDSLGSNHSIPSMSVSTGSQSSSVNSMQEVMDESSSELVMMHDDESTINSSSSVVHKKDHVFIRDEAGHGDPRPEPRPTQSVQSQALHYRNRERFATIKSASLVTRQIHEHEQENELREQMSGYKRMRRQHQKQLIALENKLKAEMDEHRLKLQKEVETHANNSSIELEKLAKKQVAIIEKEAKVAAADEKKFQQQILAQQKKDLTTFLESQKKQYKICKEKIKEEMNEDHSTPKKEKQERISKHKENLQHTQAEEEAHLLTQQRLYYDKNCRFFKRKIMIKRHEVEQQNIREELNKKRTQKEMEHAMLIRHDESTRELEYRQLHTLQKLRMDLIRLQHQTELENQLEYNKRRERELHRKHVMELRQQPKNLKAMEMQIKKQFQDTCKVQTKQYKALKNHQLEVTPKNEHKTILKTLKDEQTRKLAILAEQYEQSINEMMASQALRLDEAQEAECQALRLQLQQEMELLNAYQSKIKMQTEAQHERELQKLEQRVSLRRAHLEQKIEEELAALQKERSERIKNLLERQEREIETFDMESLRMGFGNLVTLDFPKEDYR
Particulars: kinase TAOK3; 1 uM in DMSO. Put shortly:
as §1

For assay [3], the target named is T3, kinases of the scanMAX Kinase assay panel (Homo sapiens, UniProt P36888, K663Q).
T3 construct: purchased DiscoverX Co. (contract measurement) scanMAX Kinase assay panel
T3 sequence (P36888 27-993 K663Q): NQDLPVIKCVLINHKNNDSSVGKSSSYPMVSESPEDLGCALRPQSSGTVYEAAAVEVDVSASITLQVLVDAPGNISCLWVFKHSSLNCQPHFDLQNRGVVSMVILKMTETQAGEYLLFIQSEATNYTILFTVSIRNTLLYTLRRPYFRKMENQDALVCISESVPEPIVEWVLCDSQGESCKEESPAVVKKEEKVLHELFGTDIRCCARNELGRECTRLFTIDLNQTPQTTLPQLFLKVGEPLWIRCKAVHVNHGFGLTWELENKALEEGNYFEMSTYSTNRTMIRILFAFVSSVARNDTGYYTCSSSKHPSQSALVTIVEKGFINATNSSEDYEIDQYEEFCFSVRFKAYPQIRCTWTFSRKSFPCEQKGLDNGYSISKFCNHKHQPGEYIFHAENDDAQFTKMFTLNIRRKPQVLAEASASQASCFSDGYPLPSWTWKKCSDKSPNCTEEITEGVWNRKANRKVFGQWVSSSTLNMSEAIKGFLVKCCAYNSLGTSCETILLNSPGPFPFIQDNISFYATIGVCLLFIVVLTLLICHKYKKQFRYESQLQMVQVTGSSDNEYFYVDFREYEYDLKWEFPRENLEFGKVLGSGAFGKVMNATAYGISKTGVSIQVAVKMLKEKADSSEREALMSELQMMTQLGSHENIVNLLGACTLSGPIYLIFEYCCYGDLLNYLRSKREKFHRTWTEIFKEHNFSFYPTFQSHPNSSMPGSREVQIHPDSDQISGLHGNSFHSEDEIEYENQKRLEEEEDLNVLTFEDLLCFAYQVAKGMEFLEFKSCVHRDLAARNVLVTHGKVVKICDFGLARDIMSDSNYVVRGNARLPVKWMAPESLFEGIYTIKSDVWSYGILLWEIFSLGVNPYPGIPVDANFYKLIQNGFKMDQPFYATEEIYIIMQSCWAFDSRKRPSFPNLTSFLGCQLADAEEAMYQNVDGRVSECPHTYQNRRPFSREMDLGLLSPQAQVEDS
The note with it: FLT3(K663Q); 1 uM. Put shortly:
as §1

As to `CC1(Nc2nc(Nc3cnn([C@H]4CCN(C5COC5)C[C@@H]4F)c3Cl)nc3[nH]cc(C#N)c23)CC1` [Example 52, 2-((5-chloro-1-((3S,4S)-3-fluoro-1-(oxetane-3-yl)piperidine-4-yl)-1H-pyrazole-4-yl)amino)((1-methylcyclopropyl)amino)-7H-pyrrolo[2,3-d]pyrimidine-5-carbonitrile], the figures for the remaining binding at 1 µM in assay [1], in assay [2] and in assay [3] were 0.45%, 8.6% and 0.1%, respectively.
For `CCNc1nc(Nc2ccc(C(=O)N3CCC(N4CCOCC4)CC3)cc2OC)nc2[nH]cc(C(F)(F)F)c12` [Example 104, (4-((4-(ethylamino)-5-(trifluoromethyl)-7H-pyrrolo[2,3-d]pyrimidine-2-yl)amino)-3-methoxyphenyl)(4-morpholinopiperidine-1-yl)methanone], the remaining binding at 1 µM came out at 100% in assay [1], 81% in assay [2] and 64% in assay [3].
With `CNc1nc(Nc2ccc(C(=O)N3CCOCC3)cc2OC)nc2[nH]cc(C#N)c12` [Example 1, 2-((2-methoxy-4-(morpholine-4-carbonyl)phenyl)amino)-4-(methylamino)-7H-pyrrolo[2,3-d]pyrimidine-5-carbonitrile], the values for the remaining binding at 1 µM in assay [1], in assay [2] and in assay [3] were 100%, 81% and 92%, respectively.
